Laboratory results taken from US10544106B2, “Certain chemical entities, compositions, and methods” (NeuPharma, Inc., priority 2016, dated 2020).

What was measured:
BTK = BTK (Homo sapiens (Human), UniProt Q06187); assay: Z'-LYTE kinase inhibition assay against BTK; assay type: biochemical; conditions: for inhibition at 0.1 µM: compound at 100 nM, ATP concentration at Km; for IC50: series of concentrations, GraphPad Prism 5
Procedure, shortened: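 Z′-LYTE FRET readout: 1.04-10.4 ng BTK with 2 μM Tyr 01 peptide, ATP at Km, in 50 mM HEPES pH 7.5, 10 mM MgCl2, 1 mM EGTA, 0.01% BRIJ-35, 1% DMSO. 60 min kinase reaction at room temperature, then 60 min development; IC50 from 10-point, 3-fold titrations.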

OCI-Ly10 cells = assay: OCI-Ly10 cell proliferation assay (Alamar Blue, 72 hours); assay type: cell-based; conditions: Homo sapiens
Experimental: OCI-Ly10 cells were cultured in Iscove's DMEM supplemented with 20% fetal bovine serum and 1× penicillin/streptomycin/glutamine. The cells were maintained in T175 flasks under 5% CO2 in a 37 ° C. humidified incubator for 5 days prior to plating and assay.
Cells were pooled by centrifugation (200 ref, 8 minutes) and resuspended in fresh medium to a concentration of 2.00E+05 cells/ml. 200 µl of the cell suspension was added to each well (40,000 cells/well) of a black-walled 96 well plate to which 1 μl of compound (n=3 per concentration) in 100% DMSO (0.5% final concentration) was added per well. Vehicle and cell free wells were also included in the assay. The dosed cells were cultured under normal conditions for 72 hours.
Cell proliferation is measured using the dye Alamar Blue (resazurin). Resazurin is reduced to resorufin by cellular enzymes and is fluorescent (544 nm excitation, 612 nm emission). Fluorescence intensity is proportional to cell number. Resazurin was prepared in PBS to a stock concentration of 440 μM. 40 μl of the 440 μM resazurin stock solution was added 3 hours prior to the 72 hour termination of the assay. The plate was returned to normal culture conditions and fluorescence measurements were collected using a Cytation3 multimode plate reader (Biotek) at 72 hours.
The scale utilized in Table 8 is as follows: ++ less than 50 nM and + greater than 50 nM.

BTK, sequence (Q06187 whole entry): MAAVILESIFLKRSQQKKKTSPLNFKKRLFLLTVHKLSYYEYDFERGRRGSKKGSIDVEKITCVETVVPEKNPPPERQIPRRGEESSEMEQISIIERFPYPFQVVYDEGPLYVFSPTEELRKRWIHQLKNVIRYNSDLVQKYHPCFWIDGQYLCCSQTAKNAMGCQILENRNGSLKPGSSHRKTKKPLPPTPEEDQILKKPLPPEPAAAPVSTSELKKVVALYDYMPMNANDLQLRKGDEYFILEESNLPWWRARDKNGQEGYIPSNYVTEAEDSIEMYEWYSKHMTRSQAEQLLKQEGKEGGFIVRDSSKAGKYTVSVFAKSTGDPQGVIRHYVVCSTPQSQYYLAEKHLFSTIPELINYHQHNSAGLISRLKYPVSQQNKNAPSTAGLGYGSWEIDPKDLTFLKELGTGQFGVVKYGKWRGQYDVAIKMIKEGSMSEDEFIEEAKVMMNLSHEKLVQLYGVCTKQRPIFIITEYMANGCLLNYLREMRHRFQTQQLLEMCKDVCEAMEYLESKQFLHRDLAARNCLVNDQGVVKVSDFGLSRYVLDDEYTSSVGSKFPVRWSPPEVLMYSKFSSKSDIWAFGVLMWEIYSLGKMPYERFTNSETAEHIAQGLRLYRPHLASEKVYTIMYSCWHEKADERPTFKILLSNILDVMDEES

Row | SMILES | inhibition at 0.1 µM (BTK) [%] | IC50 (BTK) [nM] | IC50 (OCI-Ly10 cells) [nM]
1 | CC#CC(=O)N1CCC(c2nc(-c3ccc(C(=O)Nc4ccccn4)cc3)n3c(N)nccc23)C1 (stereo not shown) [C204, 4-(5-amino-1-(1-(but-2-ynoyl)pyrrolidin-3-yl)imidazo[1,5-c]pyrimidin-3-yl)-N-(pyridin-2-yl)benzamide] | > 50 | < 100 | < 50
2 | C=CC(=O)Nc1cccc(-c2cc(-c3ccc(C(=O)Nc4cc(C5CC5)ccn4)c(F)c3)cc3cncnc23)c1 [C139, 4-(8-(3-acrylamidophenyl)quinazolin-6-yl)-N-(4-cyclopropylpyridin-2-yl)-2-fluorobenzamide] | > 50 | < 100 | < 50
3 | C=CC(=O)Nc1cccc(-c2cc(-c3ccc(C(=O)Nc4ccccn4)c(Cl)c3)cc3cncnc23)c1 [C163, 4-(8-(3-acrylamidophenyl)quinazolin-6-yl)-2-chloro-N-(pyridin-2-yl)benzamide] | > 50 | < 100 | > 50
4 | C=CC(=O)N1CCCC(c2nc(-c3ccc(C(=O)Nc4ccccn4)cc3)n3c(N)nccc23)C1 (stereo not shown) [C235, 4-(1-(1-acryloylpiperidin-3-yl)-5-amino-imidazo[1,5-c]pyrimidin-3-yl)-N-(pyridin-2-yl)benzamide] | – | < 100 | < 50
5 | C=CC(=O)N1CCC(c2cc(-c3ccc(C(=O)Nc4cc(F)ccn4)cc3)n3cnccc23)C1 (stereo not shown) [C065, 4-(5-(1-acryloylpyrrolidin-3-yl)pyrrolo[1,2-c]pyrimidin-7-yl)-N-(4-fluoropyridin-2-yl)benzamide] | > 50 | < 100 | < 50
6 | C=CC(=O)N1CCC(c2nc(-c3ccc(C(=O)Nc4cc(OC)ccn4)cc3)n3c(N)nccc23)C1 (stereo not shown) [C240, 4-(1-(1-acryloylpyrrolidin-3-yl)-5-amino-imidazo[1,5-c]pyrimidin-3-yl)-N-(4-methoxypyridin-2-yl)benzamide] | – | < 100 | < 50
7 | C=CC(=O)Nc1cccc(-c2cc(-c3ccc(Oc4cc(C5CC5)ccn4)cc3)cc3cncnc23)c1 [C183, N-(3-(6-(4-((4-cyclopropylpyridin-2-yl)oxy)phenyl)quinazolin-8-yl)phenyl)acrylamide] | > 50 | < 100 | < 50
8 | C=CC(=O)N1CCC(c2nc(-c3ccc(C(=O)Nc4ccccn4)cc3)n3c(N)nccc23)C1 (stereo not shown) [C185, 4-(1-(1-acryloylpyrrolidin-3-yl)-5-amino-imidazo[1,5-c]pyrimidin-3-yl)-N-(pyridin-2-yl)benzamide] | > 50 | < 100 | < 50
9 | C=CC(=O)N1CCC(c2nc(-c3ccc(C(=O)Nc4ccccn4)c(F)c3)n3c(N)nccc23)C1 (stereo not shown) [C230, 4-(1-(1-acryloylpyrrolidin-3-yl)-5-amino-imidazo[1,5-c]pyrimidin-3-yl)-2-fluoro-N-(pyridin-2-yl)benzamide] | – | < 100 | < 50
10 | C=CC(=O)Nc1cccc(-c2cc(-c3ccc(C(=O)Nc4cc(C5CC5)ccn4)cc3)cc3cncnc23)c1 [C131, 4-(8-(3-acrylamidophenyl)quinazolin-6-yl)-N-(4-cyclopropylpyridin-2-yl)benzamide] | > 50 | < 100 | < 50
11 | C=CC(=O)Nc1cccc(-c2cc(-c3ccc(Oc4ccccn4)cc3F)cc3cncnc23)c1 [C112, N-(3-(6-(2-fluoro-4-(pyridin-2-yloxy)phenyl)quinazolin-8-yl)phenyl)acrylamide] | > 50 | < 100 | < 50
12 | C=CC(=O)Nc1cccc(-c2cc(-c3ccc(C(=O)Nc4cc(C5CC5)ccn4)cc3Cl)cc3cncnc23)c1 [C120, 4-(8-(3-acrylamidophenyl)quinazolin-6-yl)-3-chloro-N-(4-cyclopropylpyridin-2-yl)benzamide] | > 50 | < 100 | < 50
13 | CC#CC(=O)N1CCCC(c2nc(-c3ccc(C(=O)Nc4ccccn4)cc3)n3c(N)nccc23)C1 (stereo not shown) [C236, 4-(5-amino-1-(1-(but-2-ynoyl)piperidin-3-yl)imidazo[1,5-c]pyrimidin-3-yl)-N-(pyridin-2-yl)benzamide] | – | < 100 | < 50
14 | C=CC(=O)Nc1cccc(-c2cc(-c3ccc(Oc4cc(C#N)ccn4)cc3)cc3cncnc23)c1 [C184, N-(3-(6-(4-((4-cyanopyridin-2-yl)oxy)phenyl)quinazolin-8-yl)phenyl)acrylamide] | > 50 | < 100 | < 50
15 | C=CC(=O)Nc1cccc(-c2cc(-c3ccc(Oc4ccccn4)cc3)cc3cncnc23)c1 [C099, N-(3-(6-(4-(pyridin-2-yloxy)phenyl)quinazolin-8-yl)phenyl)acrylamide] | > 50 | < 100 | < 50
16 | C=CC(=O)Nc1cccc(-c2cc(-c3ccc(Oc4ccccn4)cc3OC)cc3cncnc23)c1 [C121, N-(3-(6-(2-methoxy-4-(pyridin-2-yloxy)phenyl)quinazolin-8-yl)phenyl)acrylamide] | > 50 | < 100 | > 50
17 | C=CC(=O)N1CCC(c2nc(-c3ccc(C(=O)Nc4cc(C5CC5)ccn4)cc3)n3c(N)nccc23)C1 (stereo not shown) [C238, 4-(1-(1-acryloylpyrrolidin-3-yl)-5-amino-imidazo[1,5-c]pyrimidin-3-yl)-N-(4-cyclopropylpyridin-2-yl)benzamide] | – | < 100 | < 50
18 | C=CC(=O)Nc1cccc(-c2cc(-c3cccnc3)cc3cnc(N)nc23)c1 [C035, N-(3-(2-amino-6-(pyridin-3-yl)quinazolin-8-yl)phenyl)acrylamide] | > 50 | < 100 | > 50
